From the CATMoS acute toxicity set (Mansouri et al. 2021)

Test: GHS categories as the set defines them, by LD50: 1 up to 5, 2 up to 50, 3 up to 300, 4 up to 2000, 5 above 2000 mg/kg
Conditions: rat; in vivo; po
From the text: […]The data set underlying the modeling effort for this project was initially compiled by NICEATM and U.S. EPA’s CCTE. Briefly, LD50 data were collected from rat acute oral systemic toxicity tests, including limit tests, ranges/confidence intervals, and discrete LD50 values. The full data set included 21,200 LD50 entries for 15,688 substances. […] Data were reviewed to ensure that LD50 values with obvious errors in the extracted data such as unit conversion errors (e.g., comma and decimal separator misplacements) were either fixed or removed. After this review, 16,209 LD50 values remained. Many of the chemicals represented had multiple LD50 entries, requiring that a single representative value per Chemical Abstracts Service Registry Number (CASRN) identifier be defined to facilitate modeling efforts. Based on ATWG feedback and to define the representative LD50 as a protective value while accounting for the distribution across multiple LD50s, the median of the lowest quartile was computed using only discrete LD50 values (omitting limit test data and range and confidence interval data). A detailed summary of the data compilation is available online on the NICEATM webpage dedicated to the collaborative modeling project (NTP 2020).
[…][…] For categorical designations, limit test and range/confidence interval LD50 data were integrated wherever possible. As such, the number of chemicals with end point values/calls varies across the modeling end points (Table 3) based on whether chemicals had representative LD50 values and/or other data. If a chemical had both, the representative value was used to determine categorical calls rather than limit test data. Some data were useable only for certain end points and categories depending on the thresholds. For example, ranges that spanned multiple hazard categories were considered only for the binary (very toxic/nontoxic) end points and omitted from rendering a determination for hazard category assignment.
[…]The final data set comprising 11,992 chemicals was split into training and evaluation sets […], respectively. This process was performed semirandomly by ordering chemicals based on the five end points (categorical and continuous LD50 values) and partitioning every fourth record into the evaluation set accordingly. This approach was taken to ensure an equivalent distribution of the LD50 values and the different hazard categories between the training and the evaluation sets without supervised sampling of the chemicals based on structures (Figure 1A). The sources of the chemical structures were also kept equivalent between the two sets, with chemical structures obtained from DSSTox, being the highest quality, representing over 75% of each set (Figure 1B).

SMILES	GHS category
CCCCCCCNC(=O)c1cnc2cccc(C)n2c1=O	3
CC(C)=CCN(CC=C(C)C)CCC(C#N)(CC=C(C)C)c1cccc2ccccc12 (stereo not given)	4
CCC1(CO)COC1	5
Clc1cc(Cl)c2oc(C3(Cn4ccnc4)OCCCO3)cc2c1	4
Cc1c([N+](=O)[O-])c(C)c([N+](=O)[O-])c(C(C)(C)C)c1[N+](=O)[O-]	5
CC1CC(OC(=O)C(C)Oc2ccc(F)cc2)CC(C)(C)C1 (stereo not given)	5
COc1ccc(N(CCCC(=O)O)C(=O)c2ccc(Cl)cc2)cc1	5
CC(C)(C)CNc1nnc(-c2ccccc2)c2ccccc12	5
O=C(O)c1ccc(/N=N/c2ccc(O)c(C(=O)O)c2)cc1	5
CNC(=O)Oc1cccc2c1OC1(CCCCC1)O2	3
CC(C)CCCCCCOC(=O)C1CCCCC1C(=O)OCCCCCCC(C)C (stereo not given)	5
CC(=O)c1ccc(Oc2ccc(Cl)cc2)cc1Cl	5
O=C1NCCCN1	5
CCCNC(=O)c1sc(-c2ccccc2OC)nc1C	5
COc1cc(NS(=O)(=O)c2ccc(N)cc2)ncn1	5
CCOC(/C=C(\C)CCC=C(C)C)OCC	5
FC(F)(Cl)C(F)(Cl)C(F)(Cl)C(F)(F)Cl (stereo not given)	5
N#CC1CCCC2OCC(c3ccccc3)N12 (stereo not given)	5
CCCCc1nc(C=O)c(Cl)[nH]1	5
CO[Si](C)(OC)OC	5
COc1cc(OC)nc(NC(=O)NS(=O)(=O)Nc2ccccc2C(=O)N(C)C)n1	5
NNC(=O)NN	5
O=C(O)CCCCCCCCCCCCCCCCC(=O)O	5
Cc1cc(C2(c3ccc(O)c(C)c3)CCCCC2)ccc1O	5

SMILES	GHS category
Cc1cc(C)c(C(=O)P(=O)(C(=O)c2c(C)cc(C)cc2C)c2ccccc2)c(C)c1	5
O=C(c1ccc(OC2CCOC2)cc1)c1cc(I)ccc1Cl (stereo not given)	4
CCOc1ccc(OC)cc1-c1nc(=O)c2cc(C(=O)O)ccc2[nH]1	4
CCN1C(=O)CCc2c(OCC(O)CN3CCC(Cc4ccccc4)CC3)cccc21 (stereo not given)	4
OC1(c2ccccc2)c2c(Cl)cccc2C2=NCCN21 (stereo not given)	4
O=S(=O)(O)c1cc(-n2nc3ccc4ccccc4c3n2)ccc1C=Cc1ccccc1	5
CCOC(=O)C(C)CC (stereo not given)	5
CC(C)(CO)CO	5
Cc1ncoc1C(N)=O	5
Cc1ccc(-c2c(Cl)nc(C#N)n2S(=O)(=O)N(C)C)cc1	5
Cc1c(N)nc(C(CC(N)=O)NCC(N)C(N)=O)nc1C(=O)NC(C(=O)NC(C)C(O)C(C)C(=O)NC(C(=O)NCCc1nc(-c2nc(C(=O)NCCCN[C@@H](C)c3ccccc3)cs2)cs1)C(C)O)C(O[C@@H]1O[C@@H](CO)[C@@H](O)[C@H](O)[C@@H]1O[C@H]1O[C@H](CO)[C@@H](O)[C@H](OC(N)=O)[C@@H]1O)c1c[nH]cn1 (stereo not given in full)	5
C[C@@H]1CN2CC(=O)Nc3ccc(Cl)cc3[C@]2(c2ccccc2)O1	5
CCCCCCCCCCCCOC(=O)CCSCCC(=O)OCCCCCCCCCCCC	5
CC#CCn1c(Br)nc2c1c(=O)[nH]c(=O)n2C	4
CCN(C(=O)CCCCc1nnnn1-c1ccccc1)C1CCCCC1	4
C[C@@H]1C[C@H]2[C@@H]3CCC4=CC(=O)C=C[C@]4(C)[C@@]3(F)[C@@H](O)C[C@]2(C)[C@@]1(O)C(=O)COS(=O)(=O)O	5
Cc1nc(N)sc1C(=O)N(C(C)C)C(C)C	4
CCCOC(=O)Cc1ccc(OCC(=O)N(CC)CC)c(OC)c1	5
C=CC(C)(CCC=C(C)C)OC(=O)C(C)C (stereo not given)	5
COC1=C(C(=O)O)N2C(=O)[C@@H](NC(=O)[C@H](N)C3=CCC=CC3)[C@H]2SC1	5
O=CN(O)CCCP(=O)(O)O	5
Cn1cc(C(=O)Cl)c(C(F)F)n1	5
C[C@H]1COc2c(N3C[C@@H](N)C4(CCC4)C3)c(F)cc3c(=O)c(C(=O)O)cn1c23	5
CO/C=C(/C(=O)OC)c1ccccc1Oc1cc(Oc2ccccc2C#N)ncn1	5

SMILES	GHS category
C[C@H]1CCCC(=O)CCCC=Cc2cc(O)cc(O)c2C(=O)O1	5
CCCCCOC(=O)CC	5
CCOC(=O)[C@H](CCc1ccccc1)N[C@@H](C)C(=O)N1[C@H](C(=O)O)C[C@H]2CCCC[C@@H]21	5
O=C(O)c1ccc(OCCn2ccnc2)cc1	4
CCCCCCCCCCCCN1CCCCCC1=O	5
CCCCC(=O)O[C@]1(C(=O)CO)[C@H](C)C[C@H]2[C@@H]3CCC4=CC(=O)C=C[C@]4(C)[C@@]3(F)[C@@H](O)C[C@@]21C	5
Cl[Si](Cl)(C1CCCC1)C1CCCC1	5
CCC=CCC=CCC=CCC=CCC=CCCCCCC(=O)O	5
CC(CCC(=O)O)C1CCC2C3C(OS(=O)(=O)O)CC4CC(OS(=O)(=O)O)CCC4(C)C3CCC12C (stereo not given)	5
CCC1(c2ccc(O)cc2)NC(=O)NC1=O (stereo not given)	5
CCOC(=O)C1N=C(c2ccccc2F)c2cc(Cl)ccc2NC1=O (stereo not given)	5
COC(=O)c1ccc(C(=O)OC)c(N=NC(C(C)=O)C(=O)Nc2ccc(NC(=O)C(N=Nc3cc(C(=O)OC)ccc3C(=O)OC)C(C)=O)cc2)c1 (stereo not given)	5
CCOC(=O)COc1ccc2c(=O)cc(-c3ccccc3)oc2c1	5
Cc1ccc(OP(=O)(Oc2ccc(C)cc2C)Oc2ccc(C)cc2C)c(C)c1	5
C=C(C)C(=O)OCCOC(=O)Oc1ccc(C(C)(C)c2ccc(OC(=O)OCCOC(=O)C(=C)C)cc2)cc1	5
COc1cc(OC)nc(NC(=O)NS(=O)(=O)c2c(-c3nnn(C)n3)cnn2C)n1	5
CC1=C(C(=O)O)N2C(=O)[C@@H](NC(=O)[C@H](N)C3=CCC=CC3)[C@H]2SC1	5
C#CCNC(=O)Oc1cccc2c1OC(C)(C)O2	3
CCCCCCCCC(=O)NO	5
C[C@@H]1CCO[C@@](Cn2cncn2)(c2cc3ccccc3o2)O1	4
CC1CC(OC(=O)C(C)Oc2cccc(C(F)(F)F)c2)CC(C)(C)C1 (stereo not given)	5
CC(C)CCCC(C)CCO (stereo not given)	5
CCOC(=O)C(=O)Nc1cc(OCCOC)ncn1	4
O=[N+]([O-])c1cc(C(F)(F)F)c(Cl)c([N+](=O)[O-])c1Nc1ncc(C(F)(F)F)cc1Cl	5

SMILES	GHS category
CCCCCCCCOC=O	5
C[C@@H]1C[C@H]2[C@@H]3CCC4=CC(=O)C=C[C@]4(C)[C@@]3(F)[C@@H](O)C[C@]2(C)[C@@]1(O)C(=O)CO	5
CCCN(CCC)C(=O)C(CCC(=O)OCCOCCOC(=O)Cc1c(C)n(C(=O)c2ccc(Cl)cc2)c2ccc(OC)cc12)NC(=O)c1ccccc1 (stereo not given)	4
COc1nn(C(=O)NS(=O)(=O)c2ccccc2OC(F)(F)F)c(=O)n1C	5
CCCCC(CC)COC(=O)CCCCCCCCC(=O)OCC(CC)CCCC (stereo not given)	5
CCOC(=O)c1cc(=O)c2c(OCC(O)COc3cccc4oc(C(=O)OCC)cc(=O)c34)cccc2o1	5
FC(F)(F)c1cccc(C(c2ccccc2)(c2ccccc2)n2cncn2)c1	5
CC(C)CC(=O)OCc1ccccc1	5
CSCCC(NC(=O)C(N)Cc1c[nH]c2ccccc12)C(=O)NC(CC(=O)O)C(=O)NC(Cc1ccccc1)C(N)=O (stereo not given)	5
CC(=O)OC(C)Cc1ccccc1 (stereo not given)	5
COc1cc(C(=O)OCCOCCN2CCN(C(c3ccccc3)c3ccc(Cl)cc3)CC2)cc(OC)c1OC (stereo not given)	5
CCN(CC)c1nc2ccccn2c(=O)c1C=NN1CCOC1=O	3
CC(C)(C)c1cc(Cc2cc(C(C)(C)C)c(O)c(C(C)(C)C)c2)cc(C(C)(C)C)c1O	5
O=C(c1ccc(Cl)cc1)c1ccc2[nH]c(=O)oc2c1	5
CCn1cc(C(=O)O)c(=O)c2cc(F)c(N3CCNCC3)cc21	5
Cc1ccc(C(=O)O)c(Oc2ccccc2CC(=O)O)c1C	5
COc1cnc(OC)n2nc(NS(=O)(=O)c3c(OCC(F)F)cccc3C(F)(F)F)nc12	5
O=C(OCCOCCO)c1ccccc1Nc1ccc(O)c(C(F)(F)F)c1	4
COC(=O)CCCC(=O)OC	5
CC(=O)O[C@@H]1C(=O)O[C@@H]2[C@H]1OC(=O)[C@@H]2OC(C)=O	5
O=C(O)CCC(=O)O	5
CC1=C(/C=C/C(C)=C/C=C/C(C)=C\C(=O)O)C(C)(C)CCC1	5
CC1CC(OC(=O)COc2ccccc2Cl)CC(C)(C)C1 (stereo not given)	5
